Measured values published in patent publication US12202805B2, “Process for preparing (5S)-{[2-(4-carboxyphenyl)ethyl] |2-(2-{|3-chloro-4'-(trifluoromethyl)biphenyl-4-yl]methoxy}phenyl)ethyl]aminol-5,6,7,8-tetrahydroquinoline-2-carboxylic acid and its crystalline forms for use as pharmaceutically active compound” (Bayer Aktiengesellschaft, priority 2021, dated 2025).
Read-outs that look alike come from different tables or passages of the source.

Assay: E-2.3 inhalative, oral and intravenous single doses in healthy male subjects: plasma concentrations and lung deposition
Format: in vivo, human
Conditions: for concentration at 0 h: 0 h after dose, heading: Geometric mean of plasma concentrations; for concentration at 0.25 h: 0.25 h after dose; for concentration at 0.5 h: 0.5 h after dose; for concentration at 0.75 h: 0.75 h after dose; for concentration at 1 h: 1 h after dose; for concentration at 1.5 h: 1.5 h after dose; for concentration at 2 h: 2 h after dose; for concentration at 2.5 h: 2.5 h after dose; for concentration at 3 h: 3 h after dose; for concentration at 4 h: 4 h after dose; for concentration at 6 h: 6 h after dose; for concentration at 8 h: 8 h after dose; for concentration at 12 h: 12 h after dose; for concentration at 15 h: 15 h after dose; for concentration at 24 h: 24 h after dose; for concentration at 28 h: 28 h after dose; for concentration at 32 h: 32 h after dose; for concentration at 36 h: 36 h after dose
Method: E-2.3 Inhalative, Oral and Intravenous Administration of Single Doses of sGC an Activator in Healthy Male Subjects—Lung Deposition
Healthy white male subjects, aged 18 to 45 years with a body mass index (BMI) above/equal 18.5 and below/equal 29.9 kg/m^2 were treated in a clinical phase I study with a single inhaled dose of 1000 μg (nominal dose), a single inhaled dose of 1000 μg (nominal dose)+charcoal block, a single oral dose of 1000 μg and a single infusion over 2 h of 100 μg of example 4. As the bioavailability of an intravenous application is generally 100% per definition and therefore higher than in case of an oral or […], the intravenous dose was carefully selected to be lower than the oral and inhaled dose to avoid higher plasma concentration resulting from a high IV dose and potential side effect, e.g. reduction in blood pressure or syncope. Therefore, 100 μg was selected for the IV dose in this investigation. Seven days washout period between treatments was applied. The subjects swallowed a solution for oral administration (20 ml comprising 1000 μg, see under C-2, table 26). The subjects received a solution as a single infusion over 2 hours (2 ml comprising 100 μg, see under C-2 table 26). The subjects inhaled the drug powder from capsules (see under C-1, tables 17 and 20) inserted into a handheld inhalation device by one deep inhalative breath. After inhalation of the dry powder formulation of this drug, some parts of the nominal dose remain in the capsule and the device, the dose which reaches the body at the mouthpiece is called the emitted dose. The emitted dose can be calculated/determined as followed: nominal dose−(remains in the capsule+remains in the device). After inhalation of the dry powder, one part of the emitted dose enters the gastrointestinal tract (GIT) and is called the oral part of the emitted dose, the other part of the emitted dose which reaches the lung through the respiratory airways is called the lung dose and represents the lung deposited dose. As the lung is the target organ of the effect, the lung deposited dose must be quantified. Lung deposition can be indirectly estimated, by determining the part of the nominal dose which reaches the GIT and the remains in the capsule and the device. To investigate and determine lung deposition, the following investigations were done (see also FIG. 59): • 1—Inhaled application of a single dose of 1000 μg of the dry powder. • 2—Inhaled application of a single dose of 1000 μg of the dry powder in combination with oral administration of charcoal block. The charcoal block capped the oral absorption of GIT part of the dose, as example 4 completely adsorbed to charcoal block. This implies that the concentrations of example 4 measured reach the systemic circulation via the lung. • 3—Administration of a single oral dose of […] example 4 to determine the oral absorption. • 4—Administration of a 2 h infusion of example 4 to investigate the elimination.

[1] = male, human, plasma, inhaled, 1000 μg, healthy male subjects, single 1000 μg inhale + Charcoal Block, N = 16, read-out: Geometric mean of plasma concentrations
[2] = male, human, plasma, inhaled, 1000 μg, healthy male subjects, single 1000 μg inhale, N = 16, read-out: Geometric mean of plasma concentrations
[3] = male, human, plasma, iv, 100 μg, healthy male subjects, 100 μg IV infusion over 2 h, N = 15, read-out: Geometric mean of plasma concentrations
[4] = male, human, plasma, po, 1000 μg, healthy male subjects, single 1000 μg oral, N = 16, read-out: Geometric mean of plasma concentrations

SMILES: O=C(O)c1ccc(CCN(CCc2ccccc2OCc2ccc(-c3ccc(C(F)(F)F)cc3)cc2Cl)[C@H]2CCCc3nc(C(=O)O)ccc32)cc1 [example 4, (5S)—{[2-(4-Carboxyphenyl)ethyl][2-(2-{[3-chloro-4′-(trifluoromethyl)biphenyl-4-yl]methoxy}phenyl)-ethyl]amino}-5,6,7,8-tetrahydroquinoline-2-carboxylic acid as Monohydrate I]
- emitted dose (after inhalation of 1000 μg in humans): 720 µg
- oral part of the dose (inhaled 1000 μg): approximately 13 % of the nominal dose
- lung dose (part of nominal dose that reached the lung) (inhaled dry powder): 16.3 % of the nominal dose
- total part of the dry powder reaching the body (inhaled dry powder): 18.8 % of the nominal dose
- concentration at 0 h (male, human, plasma, inhaled, 1000 μg, healthy male subjects, single 1000 μg inhale + Charcoal Block, N = 16): < 0.05 ng/mL
- concentration at 0.25 h [1]: 0.0583 ng/mL
- concentration at 0.5 h [1]: 0.261 ng/mL
- concentration at 0.75 h [1]: 0.491 ng/mL
- concentration at 1 h [1]: 0.662 ng/mL
- concentration at 1.5 h [1]: 0.9 ng/mL
- concentration at 2 h [1]: 0.969 ng/mL
- concentration at 2.5 h [1]: 1.02 ng/mL
- concentration at 3 h [1]: 0.933 ng/mL
- concentration at 4 h [1]: 0.812 ng/mL
- concentration at 6 h [1]: 0.508 ng/mL
- concentration at 8 h [1]: 0.373 ng/mL
- concentration at 12 h [1]: 0.22 ng/mL
- concentration at 15 h [1]: 0.157 ng/mL
- concentration at 24 h [1]: 0.0931 ng/mL
- concentration at 28 h [1]: 0.0761 ng/mL
- concentration at 32 h [1]: 0.0696 ng/mL
- concentration at 36 h [1]: 0.054 ng/mL
- concentration at 0 h (male, human, plasma, inhaled, 1000 μg, healthy male subjects, single 1000 μg inhale, N = 16): < 0.05 ng/mL
- concentration at 0.25 h [2]: 0.0628 ng/mL
- concentration at 0.5 h [2]: 0.316 ng/mL
- concentration at 0.75 h [2]: 0.622 ng/mL
- concentration at 1 h [2]: 0.869 ng/mL
- concentration at 1.5 h [2]: 1.16 ng/mL
- concentration at 2 h [2]: 1.2 ng/mL
- concentration at 2.5 h [2]: 1.18 ng/mL
- concentration at 3 h [2]: 1.07 ng/mL
- concentration at 4 h [2]: 0.927 ng/mL
- concentration at 6 h [2]: 0.583 ng/mL
- concentration at 8 h [2]: 0.415 ng/mL
- concentration at 12 h [2]: 0.25 ng/mL
- concentration at 15 h [2]: 0.181 ng/mL
- concentration at 24 h [2]: 0.106 ng/mL
- concentration at 28 h [2]: 0.0793 ng/mL
- concentration at 32 h [2]: 0.0698 ng/mL
- concentration at 36 h [2]: 0.058 ng/mL
- concentration at 0 h (male, human, plasma, iv, 100 μg, healthy male subjects, 100 μg IV infusion over 2 h, N = 15): < 0.05 ng/mL
- concentration at 0.25 h [3]: 1.76 ng/mL
- concentration at 0.5 h [3]: 2.52 ng/mL
- concentration at 0.75 h [3]: 2.68 ng/mL
- concentration at 1 h [3]: 2.99 ng/mL
- concentration at 1.5 h [3]: 3.15 ng/mL
- concentration at 2 h [3]: 3.07 ng/mL
- concentration at 2.083 h (male, human, plasma, iv, 100 μg, healthy male subjects, 100 μg IV infusion over 2 h, N = 15, 2.083 h after dose, read-out: Geometric mean of plasma concentrations): 2.57 ng/mL
- concentration at 2.25 h (male, human, plasma, iv, 100 μg, healthy male subjects, 100 μg IV infusion over 2 h, N = 15, 2.25 h after dose, read-out: Geometric mean of plasma concentrations): 1.42 ng/mL
- concentration at 2.5 h [3]: 0.559 ng/mL
- concentration at 2.75 h (male, human, plasma, iv, 100 μg, healthy male subjects, 100 μg IV infusion over 2 h, N = 15, 2.75 h after dose, read-out: Geometric mean of plasma concentrations): 0.264 ng/mL
- concentration at 3 h [3]: 0.132 ng/mL
- concentration at 0 h (male, human, plasma, po, 1000 μg, healthy male subjects, single 1000 μg oral, N = 16): < 0.05 ng/mL
- concentration at 0.25 h [4]: 0.777 ng/mL
- concentration at 0.5 h [4]: 3.64 ng/mL
- concentration at 0.75 h [4]: 5.28 ng/mL
- concentration at 1 h [4]: 5.68 ng/mL
- concentration at 1.5 h [4]: 4.69 ng/mL
- concentration at 2 h [4]: 3.32 ng/mL
- concentration at 2.5 h [4]: 2.26 ng/mL
- concentration at 3 h [4]: 1.6 ng/mL
- concentration at 4 h [4]: 1.01 ng/mL
- concentration at 6 h [4]: 0.424 ng/mL
- concentration at 8 h [4]: 0.233 ng/mL
- concentration at 12 h [4]: 0.126 ng/mL
- concentration at 15 h [4]: 0.0714 ng/mL
